In patent US20220033407A1, “N-(pyridin-2-ylsulfonyl)cyclopropanecarboxamide Derivatives and their Use in the Treatment of Disease” (NOVARTIS AG, priority 2018, published 2022):

Assays:
[1] = target: T1, delF508-CFTR-HRP (Homo sapiens, UniProt P13569, DEL508-508); experiment: Measurement of delF508-CFTR-HRP surface expression in CFBE41o- cells (HRP luminescence); assay type: cell-based; conditions: for Emax: CFBE41o-, read-out: DelF508-CFTR-HRP Amax %; for EC50: mean of at least two replicates;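 as to DelF508-CFTR-HRP Amax %: percent efficacy relative to a reference CFTR corrector compound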
T1 construct: expressed in transfected cells
T1 sequence (P13569 with tags, fused parts or gaps DEL508-508): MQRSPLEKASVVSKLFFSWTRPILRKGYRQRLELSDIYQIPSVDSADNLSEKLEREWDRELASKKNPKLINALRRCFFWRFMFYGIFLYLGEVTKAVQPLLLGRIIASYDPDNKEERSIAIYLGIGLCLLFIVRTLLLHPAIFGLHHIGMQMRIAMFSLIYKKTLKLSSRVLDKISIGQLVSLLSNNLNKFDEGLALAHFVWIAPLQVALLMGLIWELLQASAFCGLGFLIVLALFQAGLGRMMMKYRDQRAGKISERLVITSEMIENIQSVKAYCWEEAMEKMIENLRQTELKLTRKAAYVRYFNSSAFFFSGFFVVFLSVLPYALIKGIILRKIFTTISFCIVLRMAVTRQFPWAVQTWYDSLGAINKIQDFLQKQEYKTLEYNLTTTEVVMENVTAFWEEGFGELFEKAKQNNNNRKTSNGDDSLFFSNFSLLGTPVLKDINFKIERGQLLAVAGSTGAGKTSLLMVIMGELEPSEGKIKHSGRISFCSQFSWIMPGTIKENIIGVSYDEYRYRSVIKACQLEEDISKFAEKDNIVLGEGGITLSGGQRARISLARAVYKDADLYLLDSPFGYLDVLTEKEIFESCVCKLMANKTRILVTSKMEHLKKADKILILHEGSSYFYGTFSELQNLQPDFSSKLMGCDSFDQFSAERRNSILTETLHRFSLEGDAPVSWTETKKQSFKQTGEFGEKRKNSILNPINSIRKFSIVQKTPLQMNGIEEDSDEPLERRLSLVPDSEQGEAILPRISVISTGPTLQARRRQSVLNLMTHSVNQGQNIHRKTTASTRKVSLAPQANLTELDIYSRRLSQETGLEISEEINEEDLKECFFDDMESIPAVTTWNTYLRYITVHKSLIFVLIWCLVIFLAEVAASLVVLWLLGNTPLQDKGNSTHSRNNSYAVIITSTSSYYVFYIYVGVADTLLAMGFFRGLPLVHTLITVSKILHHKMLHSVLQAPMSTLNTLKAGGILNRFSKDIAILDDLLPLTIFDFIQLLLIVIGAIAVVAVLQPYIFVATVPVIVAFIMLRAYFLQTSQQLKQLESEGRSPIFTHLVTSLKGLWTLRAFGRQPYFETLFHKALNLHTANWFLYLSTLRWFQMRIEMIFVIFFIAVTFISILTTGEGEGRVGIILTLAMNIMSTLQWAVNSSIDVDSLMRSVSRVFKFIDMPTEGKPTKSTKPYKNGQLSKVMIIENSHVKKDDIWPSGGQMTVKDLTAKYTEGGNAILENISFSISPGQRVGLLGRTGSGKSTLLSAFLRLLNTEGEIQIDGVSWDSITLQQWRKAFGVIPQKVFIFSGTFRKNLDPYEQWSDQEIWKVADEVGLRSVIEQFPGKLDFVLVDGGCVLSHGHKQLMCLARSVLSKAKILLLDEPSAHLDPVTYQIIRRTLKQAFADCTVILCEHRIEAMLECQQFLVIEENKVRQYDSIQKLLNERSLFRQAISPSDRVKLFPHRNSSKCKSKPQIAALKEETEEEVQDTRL
In short: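 Stably transfected CFBE41o- cells carrying HRP in the fourth extracellular loop of delF508-CFTR, induced with 500 ng/mL doxycycline for 48 h, then compound-treated 24 h at 37° C (10-point, 3-fold, top 10 μM). Surface HRP detected by luminescent substrate; EC50 from logistic fit, triplicates, normalized to lowest-concentration median.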

[2] = target: T2, delF508-CFTR (Homo sapiens, UniProt P13569, DEL508-508); experiment: delF508-CFTR functional activity in primary human bronchial epithelial cells (HBECs), Multi-Transepithelial Clamp Circuit (MTECC-24) assay, equivalent short circuit current; assay type: cell-based; conditions: primary CF HBECs; for MTECC24 CFHBEC-Amax %: relative to reference combination 2 μM 3-(6-(1-(2,2-difluorobenzo[d][1,3]dioxol-5-yl)cyclopropane-1-carboxamido)-3-methylpyridin-2-yl)benzoic acid (24 h) + 0.5 μM N-(2,4-di-tert-butyl-5-hydroxyphenyl)-4-oxo-1,4-dihydroquinoline-3-carboxamide; for EC50: test compound added 24 h before assay, potentiator (S)-3-amino-6-methoxy-N-(3,3,3-trifluoro-2-hydroxy-2-methylpropyl)-5-(trifluoromethyl)picolinamide present at assay, mean of at least two replicates, read-out: MTECC24 CFHBEC-EC50
T2 construct: functional activity of the CFTR channel (Chloride ion transport) in patient derived primary human bronchial epithelial cells; host or cells: patient-derived primary human bronchial epithelial cells (HBECs), delF508-CFTR
T2 sequence (P13569 with tags, fused parts or gaps DEL508-508): as above
In short: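 Patient-derived delF508 HBECs, grown at air-liquid interface about two weeks, were corrected with compound basolaterally for 24 h. Compound was then re-added apically and basolaterally in HEPES pH7.4 assay medium, with sequential modulators including forskolin and the picolinamide potentiator. Ieq was recorded, normalised to 0.1% DMSO wells, and EC50 fitted from 10-point curves.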

| Structure (SMILES) | Emax [1] | EC50 [1] | MTECC24 CFHBEC-Amax % [2] | EC50 [2] | DelF508-CFTR-HRP Amax % [1] |
| --- | --- | --- | --- | --- | --- |
| Cc1ccc(-c2ccccc2C(F)(F)F)c(OC2(C(=O)NS(=O)(=O)c3cccc(N4CC[C@H](O)C4)n3)CC2)c1 [Example 5-14, (S)—N-((6-(3-Hydroxypyrrolidin-1-yl)pyridin-2-yl)sulfonyl)-1-((4-methyl-2′-(trifluoromethyl)-[1,1′-biphenyl]-2-yl)oxy)cyclopropane-1-carboxamide] | 196% | 2150 nM | 43% | 50 nM | – |
| Cc1ccc(C2CCCCC2)c(OC2(C(=O)NS(=O)(=O)c3cccc(N4CCCC(NC(=O)OC(C)(C)C)C4)n3)CC2)c1 (stereo not drawn) [Example 2-12, Tert-butyl (1-(6-(N-(1-(2-cyclohexyl-5-methylphenoxy)cyclopropanecarbonyl)sulfamoyl)pyridin-2-yl)piperidin-3-yl)carbamate] | 604% | 1530 nM | 78% | 8 nM | – |
| Cc1ccc(C2CCCC2)c(OC2(C(=O)NS(=O)(=O)c3cccc(NC[C@@H](C)O)n3)CC2)c1 [Example 4-6, (R)-1-(2-Cyclopentyl-5-methylphenoxy)-N-((6-((2-hydroxypropyl)amino)pyridin-2-yl)sulfonyl)cyclopropane-1-carboxamide] | 537% | 3350 nM | 78% | 12 nM | – |
| Cc1ccc(C2CCCC2)c(OC2(C(=O)NS(=O)(=O)c3cccc(NC[C@H](C)O)n3)CC2)c1 [Example 4-5, (S)-1-(2-Cyclopentyl-5-methylphenoxy)-N-((6-((2-hydroxypropyl)amino)pyridin-2-yl)sulfonyl)cyclopropane-1-carboxamide] | 590% | 2810 nM | 82% | 10 nM | – |
| CC(C)(C)C1CCC(Oc2ccc(Cl)cc2OC2(C(=O)NS(=O)(=O)c3cccc(N4CC[C@H](O)C4)n3)CC2)CC1 (stereo partly drawn) [Example 6-7, (S)-1-(2-((4-(tert-butyl)cyclohexyl)oxy)-5-chlorophenoxy)-N-((6-(3-hydroxypyrrolidin-1-yl)pyridin-2-yl)sulfonyl)cyclopropanecarboxamide] | 446% | 760 nM | 203.9% | 116 nM | – |

More lines, now with the values ahead:

| Emax [1] | EC50 [1] | MTECC24 CFHBEC-Amax % [2] | EC50 [2] | DelF508-CFTR-HRP Amax % [1] | Structure (SMILES) |
| --- | --- | --- | --- | --- | --- |
| 729% | 2910 nM | 98.5% | 832 nM | – | O=C(NS(=O)(=O)c1cccc(N2CC[C@H](O)C2)n1)C1(Oc2cc(Cl)ccc2N2CC3(CCC3)C2)CC1 [Example 9-20, (S)-1-(5-Chloro-2-(2-azaspiro[3.3]heptan-2-yl)phenoxy)-N-((6-(3-hydroxypyrrolidin-1-yl)pyridin-2-yl)sulfonyl)cyclopropanecarboxamide] |
| – | 1780 nM | 100.3% | 757 nM | 361.4% | Cc1ccc(C2CCC(C)(C)OC2)c(OC2(C(=O)NS(=O)(=O)c3cccc(N4CCC(O)(C(F)(F)F)CC4)n3)CC2)c1 (single isomer, unassigned) [Example 11-2-2, 1-(2-(6,6-Dimethyltetrahydro-2H-pyran-3-yl)-5-methylphenoxy)-N-((6-(4-hydroxy-4-(trifluoromethyl)piperidin-1-yl)pyridin-2-yl)sulfonyl)cyclopropane-1-carboxamide] |
| 367% | 1670 nM | 115.5% | 356 nM | – | CC1(O)CN(c2cccc(S(=O)(=O)NC(=O)C3(Oc4cc(Cl)ccc4C4CC5(CCC5)C4)CC3)n2)C1 [Example 7-10, 1-(5-Chloro-2-(spiro[3.3]heptan-2-yl)phenoxy)-N-((6-(3-hydroxy-3-methylazetidin-1-yl)pyridin-2-yl)sulfonyl)cyclopropane-1-carboxamide] |
| 472% | 580 nM | 131.1% | 123 nM | – | C[C@]1(O)CCN(c2cccc(S(=O)(=O)NC(=O)C3(Oc4cc(Cl)ccc4N4CC5(CCCCC5)C4)CC3)n2)C1 [Example 9-7, (S)-1-(5-Chloro-2-(2-azaspiro[3.5]nonan-2-yl)phenoxy)-N-((6-(3-hydroxy-3-methylpyrrolidin-1-yl)pyridin-2-yl)sulfonyl)cyclopropanecarboxamide] |
